Measurements from patent publication US20030100479A1, “Gene polymorphisms and response to treatment” (priority 2001, published 2003).
“Also recorded” adds a separate entry of the source.

What was measured:
dopamine reuptake = conditions: Kelley et al., J. Med. Chem. 39:347 (1996); cited from earlier work
[1] = Clinical trial of GW320659: change in supine diastolic blood pressure (time-adjusted AUC), by genotype; format: in vivo, human
Text: (§1) Using genotyping methods as are well known in the art, genetic data were obtained from approximately 200 of more than 500 human subjects enrolled in a dose-ranging efficacy and safety study of GW320659 for weight loss (main study group; a randomized, double-blind, placebo controlled, dose-ranging clinical trial); GW320659 was used in conjunction with a mildly hypocaloric diet and brief weight management guidance. Subjects were between the ages of 18-65 years, with a Body Mass Index (BMI) of 30-40, and were not on any psychotropic medications or other anti-obesity medications. Subjects were randomized into one of five treatment groups: placebo or GW320659 at 2.5 mg/day, 5 mg/day, 10 mg/day, or 15 mg/day (oral administration). In the main study group, for the GW320659 15 mg/day dosage, average weight loss was approximately 3.7 kg (108 subjects; data not shown).
(§2) Subjects were assessed for various parameters, including absolute change in body weight from week 0 to week 24 of the study; supine heart rate, diastolic blood pressure and systolic blood pressure at multiple predetermined time-points across the study; and change in Food Craving Inventory (Total) score from week 0 to week 24.
(§3) Analyses of changes in cardiovascular endpoints (HR, SBP, DBP, all measured in supine subjects) were conducted individually for each of the polymorphic sites, and analyzed as follows. Vital sign assessments at all post-baseline visits were analyzed utilizing a repeated measures (mixed) ANOVA model. Genotype by treatment interactions were assessed. The following model was used.
(§4) If the treatment by time interaction was non-significant, the corresponding term was planned to be removed from the model, prior to assessing treatment by genotype interaction. Subsequently, this term was removed for all vital signs analyses. In addition, vital signs data was analyzed utilizing a time-weighted area under the curve (adjusted for baseline) analysis. Model #2 (used for the efficacy analyses) was employed for these analyses.
(§5) Supine heart rate (HR), supine systolic blood pressure (SBP) and supine diastolic blood pressure (DBP) were assessed at various fixed intervals across the duration of the study. Summaries and analyses were conducted on the “area under the curve” (AUC) values (adjusted for time on study and baseline). All reported p-values in this section refer to AUC analyses, using Model No.2 as described above.
Accordingly, for some recursive partioning analysis the treatment groups were split in this manner (15 mg versus all other groups). The p-value threshold was set 0.10 (the minimum level necessary to get further automatic splits). The software then determined the remaining splits for the 15 mg group. […]

[2] = Clinical trial of GW320659: change in supine systolic blood pressure (time-adjusted AUC), by genotype; format: in vivo, human
Text: as §1, with “Subjects were randomized into one of five treatment groups: placebo or GW320659 at 2.5 mg/day, 5 mg/day, 10 mg/day, or 15 mg/day (oral administration). In the main study group, for the GW320659 15 mg/day dosage, average weight loss was approximately 3.7 kg (108 subjects; data not shown).” left out
as §2
as §3, with “The following model was used.” left out

norepinephrine uptake = conditions: Kelley et al., J. Med. Chem. 39:347 (1996); cited from earlier work
[3] = Clinical trial of GW320659: change in supine heart rate (time-adjusted AUC), by genotype; format: in vivo, human; parameters: Change in Heart Rate, Mean / Heart Rate (mean time adusted change): unit not given here
Text: as §1, §2, §3, §4
The multilocus genotypes from each individual were used to enumerate all possible haplotypes. These haplotypes were assigned starting frequencies. The haplotype frequencies were updated with frequencies calculated from all the possible haplotypes from each individual in the sample. This continued until the frequencies were constant from iteration to iteration.
Regression-based models were used to relate inferred haplotype probabilities for each individual with the continuous response.
as §5
As in Food Craving Inventory (Example 6, above), manual splits were created by treatment dose (placebo, 2.5+5 mg, and 10+15 mg). The p-value threshold was then set at 0.10 (the minimum level necessary to get further automatic splits). The software then determined the remaining splits for the 10+15 mg group. The splits found in the 10+15 mg group were then manually duplicated for the lower dose groups (for comparison purposes).

[4] = NET1 T342C (2,2) and without DRD2 C12121T (2,2), 10 mg/day or 15 mg/day
[5] = subgroup 2,2 for NET1T342C and/or NET1G155A and/or NR1G6435A, 10 mg and 15 mg combined
[6] = subgroup 2,2 for NET1T342C and/or NET1G155A and/or NR1G6435A, 10 mg/day+15 mg/day, not significantly different from placebo
[7] = subgroup 2/2 NET1T342C and/or 2/2 NET1G155A and/or 2/2 NR1G6435A, 10 mg/day+15 mg/day, 26 subjects

C[C@@H]1CO[C@@](O)(c2cc(F)cc(F)c2)[C@H](C)N1.Cl [GW320659, (2S,3S,5R)-2-(3,5-difluorophenyl)-3,5-dimethyl-2-morpholinol]
Inhibition of dopamine reuptake (dopamine reuptake): weaker reuptake inhibition effects on dopamine reuptake | Changes in diastolic blood pressure compared to subjects with alternate genotypes [1, 4]: decreased changes in heart rate and blood pressure; also recorded: comparatively small changes in HR, SBP and DBP | Mean rise in DBP [1, 5]: 2.4 mmHG | Overall mean time-adjusted change in Diastolic Blood Pressure, mean rise [1, 6]: 2.4 mm Hg | Diastolic Blood Pressure (mean time adjusted change) [1, 7]: 2.431 | Changes in systolic blood pressure compared to subjects with alternate genotypes [2, 4]: decreased changes in heart rate and blood pressure; also recorded: comparatively small changes in HR, SBP and DBP | Systolic Blood Pressure (mean time adjusted change) [2, 7]: 0.9733 | Inhibition of norepinephrine uptake (norepinephrine uptake): potent, selective inhibitor of norepinephrine uptake | Increase in heart rate compared to subjects with alternate genotypes ([3]; DRD2 C12121T (2′,2) and MAOBG644A (1,1) genotypes, 10 mg/day or 15 mg/day): larger increase in heart rate | Changes in heart rate compared to subjects with alternate genotypes [3, 4]: decreased changes in heart rate and blood pressure; also recorded: comparatively small changes in HR, SBP and DBP | Change in Heart Rate, Mean ([3]; haplotype 1,1 5HTTC867T 5HTTT3287C, All Ethnicities, 10 and 15 mg combined (Table 6)): 3.5075 | Change in Heart Rate, Mean ([3]; haplotype 1,1 5HTTC867T 5HTTT3287C, Caucasians, 10 and 15 mg combined (Table 7)): 3.811 | Change in Heart Rate, Mean ([3]; haplotype 1,1 5HTTDel-Ins 5HTTC867T, All Ethnicities, 10 and 15 mg combined (Table 6)): 4.2 | Change in Heart Rate, Mean ([3]; haplotype 1,1 5HTTDel-Ins 5HTTC867T, Caucasians, 10 and 15 mg combined (Table 7)): 4.077 | Change in Heart Rate, Mean ([3]; haplotype 1,1,1 5HTTDel-Ins 5HTTC867T 5HTT3287C, All Ethnicities, 10 and 15 mg combined (Table 6)): 5.48 | Change in Heart Rate, Mean ([3]; haplotype 1,1,1 5HTTDel-Ins 5HTTC867T 5HTT3287C, Caucasians, 10 and 15 mg combined (Table 7)): 5.69 | Change in Heart Rate, Mean ([3]; haplotype 1,1,2 5HTTDel-Ins 5HTTC867T 5HTT3287C, All Ethnicities, 10 and 15 mg combined (Table 6)): −0.6849 | Change in Heart Rate, Mean ([3]; haplotype 1,1,2 5HTTDel-Ins 5HTTC867T 5HTT3287C, Caucasians, 10 and 15 mg combined (Table 7)): −0.8345 | Change in Heart Rate, Mean ([3]; haplotype 1,2 5HTTC867T 5HTTT3287C, All Ethnicities, 10 and 15 mg combined (Table 6)): −0.6851 | Change in Heart Rate, Mean ([3]; haplotype 1,2 5HTTC867T 5HTTT3287C, Caucasians, 10 and 15 mg combined (Table 7)): −0.8347 | Change in Heart Rate, Mean ([3]; haplotype 1,2 5HTTDel-Ins 5HTTC867T, All Ethnicities, 10 and 15 mg combined (Table 6)): 6.424 | Change in Heart Rate, Mean ([3]; haplotype 1,2 5HTTDel-Ins 5HTTC867T, Caucasians, 10 and 15 mg combined (Table 7)): 6.807 | Change in Heart Rate, Mean ([3]; haplotype 1,2,1 5HTTDel-Ins 5HTTC867T 5HTT3287C, All Ethnicities, 10 and 15 mg combined (Table 6)): 6.404 | Change in Heart Rate, Mean ([3]; haplotype 1,2,1 5HTTDel-Ins 5HTTC867T 5HTT3287C, Caucasians, 10 and 15 mg combined (Table 7)): 6.808 | Change in Heart Rate, Mean ([3]; haplotype 2,1 5HTTC867T 5HTTT3287C, All Ethnicities, 10 and 15 mg combined (Table 6)): 5.565 | Change in Heart Rate, Mean ([3]; haplotype 2,1 5HTTC867T 5HTTT3287C, Caucasians, 10 and 15 mg combined (Table 7)): 5.827 | Change in Heart Rate, Mean ([3]; haplotype 2,1 5HTTDel-Ins 5HTTC867T, All Ethnicities, 10 and 15 mg combined (Table 6)): 2.183 | Change in Heart Rate, Mean ([3]; haplotype 2,1 5HTTDel-Ins 5HTTC867T, Caucasians, 10 and 15 mg combined (Table 7)): 3.034 | Change in Heart Rate, Mean ([3]; haplotype 2,1,1 5HTTDel-Ins 5HTTC867T 5HTT3287C, All Ethnicities, 10 and 15 mg combined (Table 6)): 2.256 | Change in Heart Rate, Mean ([3]; haplotype 2,1,1 5HTTDel-Ins 5HTTC867T 5HTT3287C, Caucasians, 10 and 15 mg combined (Table 7)): 3.11 | Change in Heart Rate, Mean ([3]; haplotype 2,2 5HTTDel-Ins 5HTTC867T, All Ethnicities, 10 and 15 mg combined (Table 6)): 4.879 | Change in Heart Rate, Mean ([3]; haplotype 2,2 5HTTDel-Ins 5HTTC867T, Caucasians, 10 and 15 mg combined (Table 7)): 5.085 | Change in Heart Rate, Mean ([3]; haplotype 2,2,1 5HTTDel-Ins 5HTTC867T 5HTT3287C, All Ethnicities, 10 and 15 mg combined (Table 6)): 4.782 | Change in Heart Rate, Mean ([3]; haplotype 2,2,1 5HTTDel-Ins 5HTTC867T 5HTT3287C, Caucasians, 10 and 15 mg combined (Table 7)): 4.92 | Mean rise in HR [3, 5]: 4.7 bpm | Overall mean time-adjusted change in Heart Rate, mean rise [3, 6]: 4.7 beats per minute | Heart Rate (mean time adusted change) [3, 7]: 4.666 | Mean change in HR ([3]; subgroup DRD2 C12121T (1,1) and MAOB G644A (1,1), 10 mg and 15 mg dosing): 13 bpm | Overall mean time-adjusted change in Heart Rate, mean increase ([3]; subgroup DRD2C12121T=2,2 and MAOBG644A=1,1, 10 mg/day+15 mg/day): 13 beats per minute
